Measured values from paper doi:10.1101/2025.05.08.652848v1 (biorxiv, 2025).

Assays:
Format in all cases: binding
[1] = molecular target: T1, RXRA:PPARG LBD heterodimer (Homo sapiens, UniProt P37231); assay: TR-FRET NCOR1 ID2 peptide recruitment
T1 sequence (P37231 231-505): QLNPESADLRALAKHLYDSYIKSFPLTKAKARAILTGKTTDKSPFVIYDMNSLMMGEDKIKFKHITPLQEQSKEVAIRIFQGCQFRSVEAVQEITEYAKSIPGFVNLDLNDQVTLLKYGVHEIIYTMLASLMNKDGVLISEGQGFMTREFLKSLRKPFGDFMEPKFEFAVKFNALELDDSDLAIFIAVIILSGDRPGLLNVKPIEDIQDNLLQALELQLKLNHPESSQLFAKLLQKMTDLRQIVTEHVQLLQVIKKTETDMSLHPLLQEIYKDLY
T1 sequence (P19793 228-462 partner): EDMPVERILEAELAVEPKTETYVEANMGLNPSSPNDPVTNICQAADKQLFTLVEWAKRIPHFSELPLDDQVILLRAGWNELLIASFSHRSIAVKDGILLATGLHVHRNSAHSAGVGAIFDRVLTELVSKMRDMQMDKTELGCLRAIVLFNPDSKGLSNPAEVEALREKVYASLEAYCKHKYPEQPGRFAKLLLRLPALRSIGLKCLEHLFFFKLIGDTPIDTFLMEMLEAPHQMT

[2] = molecular target: T1, RXRA:PPARG LBD heterodimer; assay: TR-FRET MED1 LxxLL peptide blockade
[3] = molecular target: T2, PPARD/RXRA LBD heterodimer (Homo sapiens, UniProt Q03181); assay: TR-FRET NCOR1 ID2 peptide recruitment
T2 sequence (Q03181 171-441 limits assumed): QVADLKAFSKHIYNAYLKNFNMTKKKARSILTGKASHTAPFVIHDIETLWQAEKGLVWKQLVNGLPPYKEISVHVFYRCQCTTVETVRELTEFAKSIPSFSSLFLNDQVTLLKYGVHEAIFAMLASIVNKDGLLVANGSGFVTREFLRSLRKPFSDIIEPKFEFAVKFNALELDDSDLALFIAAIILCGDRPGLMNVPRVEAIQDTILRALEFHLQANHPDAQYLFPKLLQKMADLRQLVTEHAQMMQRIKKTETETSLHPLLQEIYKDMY
T2 sequence (P19793 228-462 partner): T1 sequence (P19793 228-462 partner)

[4] = molecular target: T3, PPARA/RXRA LBD heterodimer (Homo sapiens, UniProt Q07869); assay: TR-FRET NCOR1 ID2 peptide recruitment
T3 sequence (Q07869 196-468 limits assumed): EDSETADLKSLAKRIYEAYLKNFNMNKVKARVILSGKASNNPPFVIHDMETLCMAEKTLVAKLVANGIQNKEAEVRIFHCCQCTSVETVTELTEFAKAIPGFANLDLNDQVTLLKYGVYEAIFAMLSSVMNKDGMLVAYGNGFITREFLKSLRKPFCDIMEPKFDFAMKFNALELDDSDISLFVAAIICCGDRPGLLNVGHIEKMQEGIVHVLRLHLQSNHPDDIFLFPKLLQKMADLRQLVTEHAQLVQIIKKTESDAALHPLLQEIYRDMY
T3 sequence (P19793 228-462 partner): T1 sequence (P19793 228-462 partner)

Row | SMILES | EC50 [1] | IC50 [2] | EC50 [3] | EC50 [4]
1 | N#Cc1ccc(Br)c(-c2cc(=O)c3c(F)cc(F)cc3[nH]2)c1 [FTX-6713, 4-bromo-3-(5,7-difluoro-4-oxo-1,4-dihydroquinolin-2-yl)benzonitrile] | 70 ± 8 nM | – | – | –
2 | N#Cc1ccc(Cl)c(-c2cc(=O)c3c(F)cc(F)cc3[nH]2)c1 [FTX-6746, 4-Chloro-3-(5,7-difluoro-4-oxo-1,4-dihydroquinolin-2-yl)benzonitrile] | 690 ± 70 nM | 740 ± 160 nM | – | –
3 | N#Cc1ccc(F)c(-c2cc(=O)c3c(F)cc(F)cc3[nH]2)c1 [FTX-6822, 3-(5,7-difluoro-4-oxo-1,4-dihydro-2-quinolyl)-4-fluorobenzonitrile] | 5000 nM | – | – | –
4 | CS(=O)(=O)c1ccc(C#N)cc1-c1cc(=O)c2c(F)cc(F)cc2[nH]1 [FX-909, 3-(5,7-difluoro-4-oxo-1,4-dihydroquinolin-2-yl)-4-(methylsulfonyl)benzonitrile] | 200 ± 30 nM | – | > 100000 nM | > 100000 nM
5 | O=C(Nc1ccccc1)c1cc([N+](=O)[O-])ccc1Cl [GW9662] | – | 97 ± 38 nM | – | –
